Source: patent publication US6127136A, “Detection of dioxin-like compounds by detection of transformed Ah receptor/ARNT complex” (Paracelsian, Inc., priority 1996, dated 2000)

Assays:
[1] = molecular target: T1, transformed Ah receptor/ARNT complex (Cavia porcellus, UniProt Q6J287); assay: Ah-ELISA, cytosol volume, time and temperature optimization; format: biochemical, guinea pig (hepatic cytosol); parameters: from tissue; host or cells: hepatic cytosol of male Hartley guinea pigs (animals from Cornell Research Animal Resources)
T1 sequence (Q6J287 1-846): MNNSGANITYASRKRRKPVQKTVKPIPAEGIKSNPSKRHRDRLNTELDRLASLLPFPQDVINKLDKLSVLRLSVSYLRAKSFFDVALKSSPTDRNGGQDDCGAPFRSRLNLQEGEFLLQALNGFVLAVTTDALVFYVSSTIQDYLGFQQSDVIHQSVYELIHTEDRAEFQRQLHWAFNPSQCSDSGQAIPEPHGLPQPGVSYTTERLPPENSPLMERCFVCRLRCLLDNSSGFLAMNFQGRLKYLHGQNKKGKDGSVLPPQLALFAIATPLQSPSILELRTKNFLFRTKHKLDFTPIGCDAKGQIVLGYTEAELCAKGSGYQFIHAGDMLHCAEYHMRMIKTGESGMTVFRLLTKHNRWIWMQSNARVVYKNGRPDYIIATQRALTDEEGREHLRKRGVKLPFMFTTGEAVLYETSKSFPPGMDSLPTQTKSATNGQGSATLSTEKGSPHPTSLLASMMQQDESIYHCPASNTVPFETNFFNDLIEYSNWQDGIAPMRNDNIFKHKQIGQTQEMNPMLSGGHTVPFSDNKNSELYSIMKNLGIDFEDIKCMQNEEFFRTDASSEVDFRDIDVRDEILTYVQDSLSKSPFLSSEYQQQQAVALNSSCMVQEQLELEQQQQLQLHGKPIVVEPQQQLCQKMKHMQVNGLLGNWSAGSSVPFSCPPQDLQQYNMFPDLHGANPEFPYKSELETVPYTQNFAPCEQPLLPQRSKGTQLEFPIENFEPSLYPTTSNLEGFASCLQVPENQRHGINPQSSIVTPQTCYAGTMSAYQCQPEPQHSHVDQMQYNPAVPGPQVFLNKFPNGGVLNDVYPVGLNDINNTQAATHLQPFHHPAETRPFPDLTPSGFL
T1 sequence (Q0WXX3 1-790 partner): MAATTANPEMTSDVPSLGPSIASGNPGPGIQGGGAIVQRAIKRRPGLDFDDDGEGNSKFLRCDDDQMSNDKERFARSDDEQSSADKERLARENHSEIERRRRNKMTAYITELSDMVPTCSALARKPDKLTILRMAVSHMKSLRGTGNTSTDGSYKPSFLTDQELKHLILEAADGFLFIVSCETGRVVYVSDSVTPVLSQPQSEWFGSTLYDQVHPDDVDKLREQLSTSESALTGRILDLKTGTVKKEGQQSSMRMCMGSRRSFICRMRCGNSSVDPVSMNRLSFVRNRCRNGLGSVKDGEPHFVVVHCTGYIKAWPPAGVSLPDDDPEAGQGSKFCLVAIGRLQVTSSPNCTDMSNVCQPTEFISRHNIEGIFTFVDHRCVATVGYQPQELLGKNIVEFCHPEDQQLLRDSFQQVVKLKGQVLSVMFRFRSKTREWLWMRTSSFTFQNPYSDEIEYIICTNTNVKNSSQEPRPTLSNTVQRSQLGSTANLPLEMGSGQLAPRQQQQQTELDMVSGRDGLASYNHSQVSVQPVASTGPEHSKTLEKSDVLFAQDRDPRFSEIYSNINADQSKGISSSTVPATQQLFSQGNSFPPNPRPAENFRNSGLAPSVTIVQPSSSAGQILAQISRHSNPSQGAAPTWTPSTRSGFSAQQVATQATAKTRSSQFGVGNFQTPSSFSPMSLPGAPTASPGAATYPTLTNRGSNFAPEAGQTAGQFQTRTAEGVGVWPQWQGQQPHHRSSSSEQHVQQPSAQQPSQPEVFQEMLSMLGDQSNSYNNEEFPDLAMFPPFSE
Protocol: The reagents and ELISA plate were prepared as described in Example 8. The volume of cytosol, temperature of cytosol incubation and time of incubation were all varied independently. The test volume of cytosol was varied between 50 and 200 μl at 50 μl increments. […] The assay was with a cytosol incubation varying between 30 and 120 minutes at 30 minute increments.

[2] = molecular target: T1, transformed Ah receptor/ARNT complex; assay: Ah-ELISA, optimization of salt concentration; format: biochemical, guinea pig (hepatic cytosol); parameters: from tissue; host or cells: hepatic cytosol of male Hartley guinea pigs (animals from Cornell Research Animal Resources)
Protocol: The reagents and ELISA plate were prepared as described in Example 7, except the anti-Rabbit/alkaline phosphatase (Sigma, St. Louis, Mo.) was prepared to make a 1:4000 dilution. The final DRE dilution was 31.2 pmol per well. The final dilution of anti-ARNT was 0.275 ug per mL. The DRE was 1/32 of the highest dilution, which corresponds to a final dilution of 0.25 nmol/uL hybridized DRE x 10.6 uL DRE/1700 uL cytosol or 31.2 pmol per well. All other concentrations were the same. All assays were run at approximately 30° C.
The salt concentration during cytosol incubation was varied from 150 mM to 255 mM NaCl at 15 mM increments with a 0 mM NaCl control for with either DMSO or TCDD to determine the effect of salt concentration on background detection. Thus, the assay was run on samples with DMSO (-) or TCDD (+) added at the concentrations taught in Example 7.

In the case of `Clc1cc2c(cc1Cl)Oc1cc(Cl)c(Cl)cc1O2` [TCDD, 2,3,7,8-tetrachlorodibenzo-p-dioxin], the “ave(+)-BG” value ([1]; 50 uL, 120 min, 30 C) is reported as 1006, the difference ([1]; 50 uL, 120 min, 30 C) is reported as 984 and the “ave(+)-BG” value ([1]; 100 uL, 120 min, 30 C) is reported as 1463. For the same compound, the difference ([1]; 100 uL, 120 min, 30 C) was 1430, the “ave(+)-BG” value ([1]; 150 uL, 120 min, 30 C) was 1910 and the difference ([1]; 150 uL, 120 min, 30 C) was 1867. For the same compound, the “ave(+)-BG” value ([1]; 200 uL, 30 min, 30 C) was 394, the difference ([1]; 200 uL, 30 min, 30 C) was 359 and the “ave(+)-BG” value ([1]; 200 uL, 30 min, 38 C) was 525. For the same compound, the difference ([1]; 200 uL, 30 min, 38 C) was 497, the “ave(+)-BG” value ([1]; 200 uL, 60 min, 30 C) was 1324 and the difference ([1]; 200 uL, 60 min, 30 C) was 1288. The “ave(+)-BG” value ([1]; 200 uL, 90 min, 30 C) was 1882, the difference ([1]; 200 uL, 90 min, 30 C) was 1839 and the “ave(+)-BG” value ([1]; 200 uL, 120 min, 22 C) was 1924. For the same compound, the difference ([1]; 200 uL, 120 min, 22 C) was 1863, the “ave(+)-BG” value ([1]; 200 uL, 120 min, 30 C) was 2369 and the difference ([1]; 200 uL, 120 min, 30 C) was 2324. The “ave(+)-BG” value ([1]; 200 uL, 120 min, 35 C) was 959, the difference ([1]; 200 uL, 120 min, 35 C) was 898 and the DIFF ([2]; 0 mM NaCl) was 1879. The RATIO ([2]; 0 mM NaCl) was 6.298, the “ELISA signal (+)” value ([2]; 0 mM NaCl, TCDD (+)) was 2233 and the DIFF ([2]; 150 mM NaCl) was 2587. The RATIO ([2]; 150 mM NaCl) was 18.03, the “ELISA signal (+)” value ([2]; 150 mM NaCl, TCDD (+)) was 2739 and the DIFF ([2]; 165 mM NaCl) was 2625. The RATIO ([2]; 165 mM NaCl) was 21, the “ELISA signal (+)” value ([2]; 165 mM NaCl, TCDD (+)) was 2756 and the DIFF ([2]; 180 mM NaCl) was 2661. The RATIO ([2]; 180 mM NaCl) was 25.96, the “ELISA signal (+)” value ([2]; 180 mM NaCl, TCDD (+)) was 2767 and the DIFF ([2]; 195 mM NaCl) was 2609. The RATIO ([2]; 195 mM NaCl) was 26.35, the “ELISA signal (+)” value ([2]; 195 mM NaCl, TCDD (+)) was 2712 and the DIFF ([2]; 210 mM NaCl) was 2215. For the same compound, the RATIO ([2]; 210 mM NaCl) was 26.29, the “ELISA signal (+)” value ([2]; 210 mM NaCl, TCDD (+)) was 2303 and the DIFF ([2]; 225 mM NaCl) was 1697. The RATIO ([2]; 225 mM NaCl) was 21.89, the “ELISA signal (+)” value ([2]; 225 mM NaCl, TCDD (+)) was 1779 and the DIFF ([2]; 240 mM NaCl) was 1333. The RATIO ([2]; 240 mM NaCl) was 16.76, the “ELISA signal (+)” value ([2]; 240 mM NaCl, TCDD (+)) was 1418 and the DIFF ([2]; 255 mM NaCl) was 1109. The RATIO ([2]; 255 mM NaCl) was 12.07, the “ELISA signal (+)” value ([2]; 255 mM NaCl, TCDD (+)) was 1210 and the DIFF ([2]; column S9) was 86.67. The RATIO ([2]; column S9) was 1.667, the “ELISA signal (+)” value ([2]; column S9, TCDD (+)) was 216.6 and the “salt concentration giving best ratio of background to detection of TCDD” value ([2]; during cytosol incubation) was 180-195 mM NaCl.
